Measurements reported in PMC10870261, “Photoinduced Hydrogel-Forming Caged Peptides with Improved Solubility” (ACS Omega, 2024).
Residues, ends and D or L forms follow the SMILES beside them. *: point of attachment. X1 = O=C(COC(=O)*)c1ccc(O)cc1

How the values were obtained:
[1] = system: A2058 human melanoma cell line; test: CellTiterGlo viability assay, cells in 2D monolayer or in peptide hydrogel (3D); type: cell-based; conditions: HPAA 1 mM, 96 h, normalized to 2D control, n = 3
Experimental: Human melanoma cell line A2058 was obtained from the European Collection of Authenticated Cell Cultures (ECACC, Salisbury, UK) and was cultured in RPMI 1640 medium supplemented with 10% (v/v %) fetal bovine serum (Biosera Europe, Nuaillé, France), 1% L-glutamine, and 1% penicillin/streptomycin (Gibco, Invitrogen Corporation, New York, USA). Cells were propagated in standard cell culture conditions (37 °C, 5% CO2).
Peptides were dissolved in PBS (1×) at a 1.2 mM concentration. 50–50 μL of the resulting stock solution was added to a 96-well, optical bottom plate. […]
Viability tests were performed using CellTiterGlo (Promega, Madison, WI, USA) reagent to determine the quantity of viable cells in both 2D setups and in hydrogels. […] The luminescence signal was measured by a Fluoroskan FL microplate fluorometer and luminometer (Thermo Scientific, Waltham, MA, USA). […] All quantitative data are presented as the mean ± standard deviation (SD). The results were evaluated with MS Excel and OriginPro 2020 software (OriginLab Corporation, Northampton, MA, USA).
Results were evaluated using MS Excel and OriginPro 2020 software (OriginLab Corp., Northampton, MA, USA). […] Data were statistically analyzed using one-way analysis of variance followed by Tukey’s posthoc test. […]

[2] = Solubility and handling (observation during purification, spectroscopic measurement); type: physicochemical; conditions: aqueous / PBS, qualitative
Experimental: To support this change in “behavior” of the caged derivative, spectroscopic (transmittance) measurements were conducted, which confirmed the suppressed aggregation compared to the nonprotected peptide (Figure 1).
Therefore, its purification and characterization could be carried out in the usual way as for peptides (e.g., RP-HPLC and LC–MS).

[3] = Optical transmittance (turbidity) in PBS; type: physicochemical; conditions: 300 μM in PBS (pH 7.4, 1×), 25 °C, 532 nm, after the starting point
Experimental: Transmittance was measured using an UV–vis spectrophotometer (Jasco V-650, Jasco, Cremella, Italy) in phosphate-buffered saline (PBS, pH 7.4, 1×) buffer.  Figure 1 Optical transmittance of native (nonprotected) EAK16-II peptide and caged-EAK16-II (300 μM) in PBS, 25 °C, 532 nm, 8 h. […] These turbidity measurements were conducted at a 300 μM concentration, which was also used for in vitro experiments.

[4] = system: A2058 human melanoma cell line; test: Fluorescence microscopy of cellular arrangement in hydrogels (acridine orange); type: cell-based; conditions: A2058 cells, 96 h, acridine orange 0.1 mM, 10× magnification, Z-stacks
Experimental: Peptides were dissolved in PBS (1×) at a 1.2 mM concentration. 50–50 μL of the resulting stock solution was added to a 96-well, optical bottom plate. The plate was illuminated with an UV lamp (Sylvania 254 nm, 8 W) for 20 min, followed by the distribution of 50–50 μL of RPMI-1640 medium [supplemented with 10% (v/v %) FBS and 1% L-glutamine, 1% penicillin/streptomycin] into the wells. Then, the plate was incubated for 1 h. For the 3D microscopic imaging of the hydrogels, cells were treated with acridine orange (at 0.1 mM) and incubated for 30 min. Fluorescence measurements were carried out on a Zeiss Celldiscoverer 7 (Zeiss, Jena, Germany) using 10× magnification (Plan-Apochromat λ/0.35 NA objective with 2× tube lens) and acquisition of Z-stacks with 10 μm intervals between individual planes. The images were processed by using ZEN Blue 2.6 software (Carl Zeiss AG, Jena, Germany). Figure 4 (A) Viability of the A2058 human melanoma cell line in native EAK-16-II and caged peptide hydrogels as well as in monolayer (2D) after 96 h. Cell viability was measured using CellTiterGlo assay (Promega, Madison, WI, USA) and normalized to 2D growing cells (control cells) (normalized live cells = 100%). Data are presented as mean values ± standard deviation (SD) from three independent experiments. (B) 3D representation of cellular arrangements in both types of hydrogels. […]

[5] = cited from earlier work
Experimental: These turbidity measurements were conducted at a 300 μM concentration, which was also used for in vitro experiments.

O=C(O)Cc1ccc(O)cc1 [HPAA, p-hydroxyphenylacetic acid]
In vitro cytotoxicity, monolayer (2D) ([1]; A2058 cells in 2D (plastic surface)): did not have any long-term toxic effect
In vitro cytotoxicity, in EAK16-II hydrogel (3D) ([1]; A2058 cells in EAK16-II (300 μM) hydrogel): did not have any long-term toxic effect

CC(=O)N[C@@H](C)C(=O)N[C@@H](CCC(=O)O)C(=O)N[C@@H](C)C(=O)N[C@@H](CCC(=O)O)C(=O)N[C@@H](C)C(=O)N[C@@H](CCCCNC(=O)OCC(=O)c1ccc(O)cc1)C(=O)N[C@@H](C)C(=O)N[C@@H](CCCCN)C(=O)N[C@@H](C)C(=O)N[C@@H](CCC(=O)O)C(=O)N[C@@H](C)C(=O)N[C@@H](CCC(=O)O)C(=O)N[C@@H](C)C(=O)N[C@@H](CCCCNC(=O)OCC(=O)c1ccc(O)cc1)C(=O)N[C@@H](C)C(=O)N[C@@H](CCCCN)C(N)=O [caged-EAK16-II] (Ac-AEAEAK(X1)AKAEAEAK(X1)AK-NH2)
Solubility [2]: good solubility

Ac-AEAEAKAKAEAEAKAK-NH2 [EAK16-II]
Time to "microgelatinization" (sedimentation of peptide aggregates, increase in transmittance) [3]: Around 10 min
Cellular arrangement (cellular aggregate formation) in hydrogel [4]: distinct cellular aggregates
Critical aggregating concentration [5]: 0.1 mg/mL
